# Experimental data reported in patent US6620828B2, “Thiazole compounds and pharmaceutical compositions for inhibiting protein kinases and methods for their use” (Agouron Pharmaceuticals, Inc., priority 1999, dated 2003).
# What was measured:
# Format in all cases: biochemical
# [1] = biological target: T1, phosphorylated VEGF-R2Δ50 (FLVK-P) (Homo sapiens, UniProt P35968, DEL940-989/E990V); assay: VEGF-R2 coupled spectrophotometric (FLVK-P) assay; settings: combinatorial library compounds; for inhibition at 20 µM: read-out: VEGF % inhibition at 20 μM, 20 μM
# T1 construct: VEGF-R2Δ50 contains residues 806-939 and 990-1171; made in house; host or cells: baculovirus/insect cells
# How it was run: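 Baculovirus-expressed human VEGF-R2Δ50 (residues 806-939/990-1171, E990V) was autophosphorylated with 3 mM ATP, 40 mM MgCl2 for 2 h at 4° C. ADP formation was coupled via PK/LDH to NADH oxidation, read at 340 nm, with 5.1 mM poly(E4Y1), 1 mM ATP, 25 mM MgCl2, Hepes pH 7.5. Ki came from activity across compound concentrations.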
# FL-CHK1 = biological target: T2, FL-CHK1 (Homo sapiens, UniProt O14757); assay: CHK1 assay; settings: 20 μM; combinatorial library compounds
# T2 construct: C-terminally His-tagged full-length human CHK1 (FL-CHK1); 6xHis (C); made in house; host or cells: baculovirus/insect cells
# T2 sequence (O14757 1-476): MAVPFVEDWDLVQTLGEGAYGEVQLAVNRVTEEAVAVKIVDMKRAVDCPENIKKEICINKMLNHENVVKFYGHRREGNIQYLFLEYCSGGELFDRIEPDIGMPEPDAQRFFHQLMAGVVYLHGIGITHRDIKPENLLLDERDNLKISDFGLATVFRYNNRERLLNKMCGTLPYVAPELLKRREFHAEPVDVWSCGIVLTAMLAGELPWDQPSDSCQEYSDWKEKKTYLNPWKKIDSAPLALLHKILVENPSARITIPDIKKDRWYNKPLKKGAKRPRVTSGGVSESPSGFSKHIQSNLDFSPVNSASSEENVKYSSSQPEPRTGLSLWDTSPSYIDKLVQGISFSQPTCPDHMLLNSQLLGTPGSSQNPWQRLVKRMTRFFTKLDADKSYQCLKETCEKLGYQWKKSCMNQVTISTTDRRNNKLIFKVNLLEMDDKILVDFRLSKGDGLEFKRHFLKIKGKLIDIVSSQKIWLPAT
# How it was run: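 Full-length human CHK1 with C-terminal 6×His tag, made in baculovirus/insect cells, 10 nM, phosphorylating 0.125 mM Syntide-2 with 0.15 mM ATP in 50 mM Tris pH 7.5, 25 mM MgCl2, 400 mM NaCl. PK/LDH-coupled NADH oxidation read at 340 nm. Ki from initial rates over varied compound concentrations.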
# CDK2/Cyclin A complex = CDK2/Cyclin A complex (Homo sapiens, UniProt P24941); assay: CDK2/Cyclin A assay; settings: 1.0 μM; combinatorial library compounds
# How it was run: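 Radiometric assay: 150 nM CDK2/cyclin A (insect-cell CDK2, truncated cyclin A) phosphorylates His-tagged Rb fragment (residues 386-928) with 25 μM ATP plus [32P]ATP, pH 7.4 HEPES, 2% DMSO, 30 °C for 20 min. Filter-captured product counted by phosphorimager; apparent Ki from competitive or tight-binding inhibition fits.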
# CDK4/Cyclin D3 complex = biological target: T3, CDK4/Cyclin D3 complex (Homo sapiens, UniProt P11802); assay: CDK4/Cyclin D assay; settings: 1.0 μM; combinatorial library compounds
# T3 construct: made in house; host or cells: insect cells co-infected with baculovirus vectors
# How it was run: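 Insect-cell-expressed CDK4/cyclin D3 (50 nM) phosphorylating His-tagged Rb fragment (residues 386-928) with 25 μM [^32P]ATP in HEPES pH 7.4, MgCl2, 2% DMSO; 20 min at 30 °C, EDTA stop. Filter-captured 32P by phosphorimager; apparent Ki from competitive or tight-binding inhibition fits.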
# T3 sequence (P11802 whole entry): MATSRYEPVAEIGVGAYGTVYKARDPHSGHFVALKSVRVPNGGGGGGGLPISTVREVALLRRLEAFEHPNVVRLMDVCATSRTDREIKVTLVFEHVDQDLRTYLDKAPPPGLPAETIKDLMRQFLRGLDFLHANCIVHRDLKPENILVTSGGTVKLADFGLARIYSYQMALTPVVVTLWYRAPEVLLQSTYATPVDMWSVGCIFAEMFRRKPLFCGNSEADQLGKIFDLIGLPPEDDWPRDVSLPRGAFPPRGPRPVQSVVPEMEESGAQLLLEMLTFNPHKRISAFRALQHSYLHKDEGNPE
# T3 sequence (P30281 whole entry partner): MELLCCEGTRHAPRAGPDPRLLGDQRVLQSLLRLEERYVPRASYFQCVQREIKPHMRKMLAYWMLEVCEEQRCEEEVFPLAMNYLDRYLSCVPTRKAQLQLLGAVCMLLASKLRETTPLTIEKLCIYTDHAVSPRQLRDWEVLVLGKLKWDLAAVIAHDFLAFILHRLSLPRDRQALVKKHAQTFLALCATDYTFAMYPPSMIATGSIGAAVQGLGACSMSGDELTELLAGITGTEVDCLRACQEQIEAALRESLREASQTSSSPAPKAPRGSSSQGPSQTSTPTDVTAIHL
# T1 sequence (P35968 with tags, fused parts or gaps DEL940-989/E990V limits assumed): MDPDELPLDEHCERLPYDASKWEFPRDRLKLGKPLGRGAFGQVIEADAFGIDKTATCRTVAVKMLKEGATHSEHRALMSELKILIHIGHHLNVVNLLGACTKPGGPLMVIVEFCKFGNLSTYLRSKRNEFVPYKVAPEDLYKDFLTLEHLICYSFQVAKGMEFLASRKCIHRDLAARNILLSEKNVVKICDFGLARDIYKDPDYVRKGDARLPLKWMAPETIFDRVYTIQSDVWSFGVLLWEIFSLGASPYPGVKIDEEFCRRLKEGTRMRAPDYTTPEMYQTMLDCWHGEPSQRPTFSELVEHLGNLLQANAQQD
SMILES,inhibition at 20 µM [1] [%],inhibition at 20 µM (FL-CHK1) [%],inhibition at 1 µM (CDK2/Cyclin A complex) [%],inhibition at 1 µM (CDK4/Cyclin D3 complex) [%],VEGF % inhibition at 20 μM [1] [%],CDK2 % Inhibition at 1.0 μM (CDK2/Cyclin A complex) [%],CDK4 % Inhibition at 1.0 μM (CDK4/Cyclin D3 complex) [%],CHK1 % Inhibition at 20 μM (FL-CHK1) [%]
CN(C)c1ccc(Nc2nc(N)c(-c3nc(-c4ccc5ccccc5c4)cs3)s2)cc1,5,19.6,26.9,45.5,,,,
Cc1cc(-c2csc(-c3sc(Nc4ccc(N(C)C)cc4)nc3N)n2)c(C)s1,32,43.9,24,64.1,,,,
CN(C)c1ccc(Nc2nc(N)c(-c3nc(-c4cccc(OC(=O)c5ccccc5)c4)cs3)s2)cc1,16,23.3,0.6,57.5,,,,
COc1cc(OC)c(-c2csc(-c3sc(Nc4ccc(N(C)C)cc4)nc3N)n2)c(O)c1Cl,36,41.1,24.1,69.3,,,,
CN(C)c1ccc(Nc2nc(N)c(-c3nc(-c4ccc5oc6ccccc6c5c4)cs3)s2)cc1,27,29.3,38.3,63.5,,,,
CN(C)c1ccc(Nc2nc(N)c(-c3nc(-c4ccc5c(c4)C(C)(C)CCC5(C)C)cs3)s2)cc1,18,32.9,3.1,74.4,,,,
CN(C)c1ccc(Nc2nc(N)c(-c3nc(-c4ccc(C(F)(F)F)cc4)cs3)s2)cc1,5,13.1,33.4,60.3,,,,
CN(C)c1ccc(Nc2nc(N)c(-c3nc(-c4ccc5c(c4)CCC(=O)N5)cs3)s2)cc1,20,32.7,-2.5,43.7,,,,
CN(C)c1ccc(Nc2nc(N)c(-c3nc(-c4ccccc4OC(=O)c4ccccc4)cs3)s2)cc1,23,9.8,27.1,48.5,,,,
CCc1cc2c(cc1-c1csc(-c3sc(Nc4ccc(N(C)C)cc4)nc3N)n1)C(C)(C)CCC2(C)C,17,18.8,20.5,70.9,,,,
COc1ccc2nc(-c3ccccc3)c(-c3csc(-c4sc(Nc5ccc(N(C)C)cc5)nc4N)n3)cc2c1,14,26,24.6,81.8,,,,
Cc1c(-c2csc(-c3sc(Nc4ccc(N(C)C)cc4)nc3N)n2)sc2ccccc12,26,3.2,23.3,12.1,,,,
CN(C)c1ccc(Nc2nc(N)c(-c3nc(-c4cc(C(C)(C)C)c(O)c(C(C)(C)C)c4)cs3)s2)cc1,6,37.1,18.3,73.2,,,,
COc1ccccc1-c1csc(-c2sc(Nc3ccc(S(N)(=O)=O)cc3)nc2N)n1 [drawing 394],21,18.7,18.9,16,,,,
Cc1ccc(-c2csc(-c3sc(Nc4ccc(S(N)(=O)=O)cc4)nc3N)n2)cc1 [drawing 395],33,-2.1,20.5,-9.6,,,,
COc1ccc(-c2csc(-c3sc(Nc4ccc(S(N)(=O)=O)cc4)nc3N)n2)cc1 [drawing 399],,6.9,,,48,10.7,9.3,

SMILES,inhibition at 20 µM [1] [%],inhibition at 20 µM (FL-CHK1) [%],inhibition at 1 µM (CDK2/Cyclin A complex) [%],inhibition at 1 µM (CDK4/Cyclin D3 complex) [%],VEGF % inhibition at 20 μM [1] [%],CDK2 % Inhibition at 1.0 μM (CDK2/Cyclin A complex) [%],CDK4 % Inhibition at 1.0 μM (CDK4/Cyclin D3 complex) [%],CHK1 % Inhibition at 20 μM (FL-CHK1) [%]
Nc1nc(Nc2ccc(S(N)(=O)=O)cc2)sc1-c1nc(-c2ccc(-c3ccccc3)cc2)cs1 [drawing 404],-3,12.3,11.2,-11.3,,,,
Nc1nc(Nc2ccc(S(N)(=O)=O)cc2)sc1-c1nc(-c2ccc(Cl)cc2Cl)cs1 [drawing 406],32,14.7,63,79.2,,,,
Nc1nc(Nc2ccc(S(N)(=O)=O)cc2)sc1-c1nc(-c2ccc(F)cc2)cs1 [drawing 409],43,33.7,74.7,61.2,,,,
Nc1nc(Nc2ccc(S(N)(=O)=O)cc2)sc1-c1nc(-c2ccc(O)cc2)cs1 [drawing 415],56,18.7,57.9,51.3,,,,
Nc1nc(Nc2ccc(S(N)(=O)=O)cc2)sc1-c1nc(-c2ccccc2)cs1 [drawing 421],23,11.2,,,,8.2,−33.4,
Cc1c(-c2csc(-c3sc(Nc4ccc(S(N)(=O)=O)cc4)nc3N)n2)sc2ccc(Cl)cc12 [drawing 424],23,,67,59.9,,,,28.4
COc1ccc(-c2csc(-c3sc(Nc4ccc(S(N)(=O)=O)cc4)nc3N)n2)cc1 [drawing 425],,,,,11,54.2,40.9,10.7
Cc1c(-c2csc(-c3sc(Nc4ccc(S(N)(=O)=O)cc4)nc3N)n2)sc2ccc(Cl)cc12 [drawing 426],,,,,19,56,70.6,9.7
Nc1nc(Nc2ccc(S(N)(=O)=O)cc2)sc1-c1nc(-c2ccccc2)cs1 [drawing 435],,,,,34,60.8,43.3,12.3
Cc1c(F)cc(-c2csc(-c3sc(Nc4ccc(S(N)(=O)=O)cc4)nc3N)n2)cc1Cl [drawing 440],5,21.1,68,75,,,,
Nc1nc(Nc2ccc(S(N)(=O)=O)cc2)sc1-c1nc(-c2ccc(F)cc2F)cs1 [drawing 445],40,21.6,74.1,58.2,,,,
COc1ccc(-c2csc(-c3sc(Nc4ccc(C(C)C)cc4)nc3N)n2)cc1 [drawing 462],19,,27.8,60.9,,,,4.7
CC(C)c1ccc(Nc2nc(N)c(-c3nc(-c4ccccc4)cs3)s2)cc1 [drawing 484],,,23.3,,−4,,−42.5,4
Cc1c(-c2csc(-c3sc(Nc4ccc(C(C)C)cc4)nc3N)n2)sc2ccc(Cl)cc12 [drawing 487],47,32.3,38.6,79.6,,,,
COc1ccc(-c2csc(-c3sc(Nc4ccc(C(C)C)cc4)nc3N)n2)cc1 [drawing 488],,,,,12,38.3,79,14.2
Cc1c(-c2csc(-c3sc(Nc4ccc(C(C)C)cc4)nc3N)n2)sc2ccc(Cl)cc12 [drawing 489],,,,,42,31,79.9,17.8
